Results: patent US11566007B2, “Ras inhibitors” (Revolution Medicines, Inc., priority 2019, dated 2023)
Where two headings read alike, the source gives them in different places.

Columns and labels:
K-Ras G12C = K-Ras G12C (Homo sapiens (Human), UniProt P01116+P62937, G12C); assay: Ras-Raf (BRAF RBD) disruption / FRET / MOA assay, KRAS G12C; type: biochemical; conditions: KRAS G12C; Ras-Raf disruption/FRET/MOA assay; read-out: IC50* KRAS G12C FRET data
Procedure, shortened: (§1)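 A 10-point, 3-fold dilution series topping at 30 μM final was incubated 3 h at 25° C with the Ras/cyclophilin A/BRAF RBD mixture.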

KRAS G12V = KRAS G12V (Homo sapiens (Human), UniProt P01116+P62937, G12V); assay: Ras-Raf (BRAF RBD) disruption / FRET / MOA assay, KRAS G12V; type: biochemical; conditions: read-out: IC50* KRAS G12V FRET data
Procedure, shortened: as §1

NCI-H358 (K-Ras G12C) = assay: CellTiter-Glo cell viability assay, NCI-H358; type: cell-based, human; conditions: Homo sapiens, NCI-H358, 120 h, class symbols
Procedure, shortened: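 Compounds dispensed directly onto seeded K-Ras mutant cells; plates read on day 5 after ~30 min equilibration to room temperature, by CellTiter-Glo luminescence. Signal normalized as (sample/mean DMSO)×100, then fitted to a four-parameter logistic curve.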

KRAS G12D = KRAS G12D (Homo sapiens (Human), UniProt P01116+P62937, G12D); assay: Ras-Raf (BRAF RBD) disruption / FRET / MOA assay, KRAS G12D; type: biochemical; conditions: Ras-Raf disruption/FRET/MOA assay; class symbols; read-out: KRAS G12D FRET data IC50
Procedure, shortened: as §1

NRAS G12C = NRAS G12C (Homo sapiens (Human), UniProt P01111+P62937, G12C); assay: Ras-Raf (BRAF RBD) disruption / FRET / MOA assay, NRAS G12C; type: biochemical; conditions: read-out: IC50* NRAS G12C FRET data
Procedure, shortened: as §1

NRAS WT = NRAS WT (Homo sapiens (Human), UniProt P01111+P62937); assay: Ras-Raf (BRAF RBD) disruption / FRET / MOA assay, NRAS WT; type: biochemical; conditions: read-out: IC50* NRAS WT FRET data
Procedure, shortened: (§2)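 Compounds (30 μM top final, 10-point 3-fold dilutions) incubated 3 h at 25° C with nucleotide-loaded Ras, cyclophilin A and BRAF RBD. Detection with 10 nM anti-His Eu-W1024 and 50 nM anti-GST allophycocyanin over another 1.5 h. Lowered TR-FRET ratio relative to DMSO wells gives IC50.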

NRAS Q61K = NRAS Q61K (Homo sapiens (Human), UniProt P01111+P62937, Q61K); assay: Ras-Raf (BRAF RBD) disruption / FRET / MOA assay, NRAS Q61K; type: biochemical; conditions: NRAS Q61K; Ras-Raf disruption/FRET/MOA assay; read-out: IC50* NRAS Q61K FRET data
Procedure, shortened: as §2

[1] = NCI-H358, 5-day treatment, read-out: Additional H358 Cell Viability assay data (K-Ras G12C, IC50)

Sequence of K-Ras G12C (P01116-2 other isoform, or with tags, fused parts or gaps G12C): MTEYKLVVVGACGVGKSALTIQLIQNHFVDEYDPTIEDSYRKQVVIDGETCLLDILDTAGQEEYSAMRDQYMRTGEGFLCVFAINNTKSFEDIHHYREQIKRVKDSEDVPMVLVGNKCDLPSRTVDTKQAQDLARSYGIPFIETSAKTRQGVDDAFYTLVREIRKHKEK
Sequence of K-Ras G12C (P62937 whole entry): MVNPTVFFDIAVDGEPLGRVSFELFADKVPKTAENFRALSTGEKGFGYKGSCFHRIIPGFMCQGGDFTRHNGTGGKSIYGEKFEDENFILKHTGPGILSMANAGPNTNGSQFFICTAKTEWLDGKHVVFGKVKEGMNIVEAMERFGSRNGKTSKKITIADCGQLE
Sequence of NRAS Q61K (P01111 whole entry Q61K): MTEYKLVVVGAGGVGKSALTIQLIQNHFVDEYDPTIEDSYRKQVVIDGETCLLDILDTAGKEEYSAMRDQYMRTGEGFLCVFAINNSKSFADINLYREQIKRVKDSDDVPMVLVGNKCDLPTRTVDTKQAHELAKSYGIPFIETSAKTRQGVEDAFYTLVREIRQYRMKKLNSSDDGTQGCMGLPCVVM
Sequence of NRAS Q61K (P62937 whole entry): as the sequence (P62937 whole entry) above
Sequence of KRAS G12D (P01116-2 other isoform, or with tags, fused parts or gaps G12D): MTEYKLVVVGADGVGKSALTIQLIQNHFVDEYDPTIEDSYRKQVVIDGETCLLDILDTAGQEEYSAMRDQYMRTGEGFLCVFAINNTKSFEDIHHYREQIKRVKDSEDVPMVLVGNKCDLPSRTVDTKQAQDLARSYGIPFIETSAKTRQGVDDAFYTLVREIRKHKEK
Sequence of KRAS G12D (P62937 whole entry): as the sequence (P62937 whole entry) above
Sequence of KRAS G12V (P01116-2 other isoform, or with tags, fused parts or gaps G12V): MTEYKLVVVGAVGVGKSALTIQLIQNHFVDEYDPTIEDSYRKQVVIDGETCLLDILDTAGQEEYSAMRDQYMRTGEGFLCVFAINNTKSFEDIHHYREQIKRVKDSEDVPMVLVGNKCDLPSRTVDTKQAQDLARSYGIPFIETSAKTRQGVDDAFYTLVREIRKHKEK
Sequence of KRAS G12V (P62937 whole entry): as the sequence (P62937 whole entry) above
Sequence of NRAS G12C (P01111 whole entry G12C): as the sequence (P01111 whole entry Q61K) above, with G12C, K61Q counted along it
Sequence of NRAS G12C (P62937 whole entry): as the sequence (P62937 whole entry) above
Sequence of NRAS WT (P01111 whole entry): as the sequence (P01111 whole entry Q61K) above, with K61Q counted along it
Sequence of NRAS WT (P62937 whole entry): as the sequence (P62937 whole entry) above

Row | SMILES | IC50 (K-Ras G12C) | IC50 (KRAS G12V) | IC50 (NCI-H358 (K-Ras G12C); [1]) | IC50 (KRAS G12D) | IC50 (NRAS G12C) | IC50 (NRAS WT) | IC50 (NRAS Q61K) | IC50 (NCI-H358 (K-Ras G12C); read-out: Additional H358 Cell Viability assay data (K-Ras G12C, IC50, uM), NCI-H358, 5-day treatment)
1 | CO[C@@H](C)c1ncccc1-c1c2c3nc(ccc3n1CC(F)(F)F)-c1cccc(c1)C[C@H](NC(=O)[C@@H](COC1CN(C(=O)C#CC(C)(C)N(C)C)C1)C(C)C)C(=O)N1CCC[C@H](N1)C(=O)OCC(C)(C)C2 (atropisomer, axis not shown) [Example A724] | 0.01 to 0.1 µM | > 10 µM | < 0.01 µM | > 10 µM | 0.01 to 0.1 µM | > 10 µM | > 10 µM | 
2 | C=CC(=O)N1CCN(C(=O)N(C)[C@H](C(=O)N[C@H]2Cc3nc(cs3)-c3ccc4c(c3)c(c(-c3cccnc3[C@H](C)OC)n4CC)CC(C)(C)COC(=O)[C@@H]3CCCN(N3)C2=O)C(C)C)[C@@H]2C[C@@H]21 (atropisomer, axis not shown) [Example A736] | 0.01 to 0.1 µM | 0.1 to 1 µM | < 0.01 µM | 0.1 to 1 µM | 0.01 to 0.1 µM | 0.01 to 0.1 µM | 0.01 to 0.1 µM | 
3 | C=CC(=O)N1CCOC2(CCN(C(=O)N(C)[C@H](C(=O)N[C@H]3Cc4nsc(n4)-c4ccc5c(c4)c(c(-c4cccnc4[C@H](C)OC)n5CC)CC(C)(C)COC(=O)[C@@H]4CCCN(N4)C3=O)C(C)C)CC2)C1 (atropisomer, axis not shown) [Example A545] | 0.01 to 0.1 µM | 0.1 to 1 µM | 0.01 to 0.1 µM | 1 to 10 µM | 0.01 to 0.1 µM | 0.1 to 1 µM | 0.01 to 0.1 µM | 
4 | C=CC(=O)N(C)C[C@H]1CCN(C(=O)N(C)[C@H](C(=O)N[C@H]2Cc3nc(cs3)-c3ccc4c(c3)c(c(-c3cccnc3[C@H](C)OC)n4CC)CC(C)(C)COC(=O)[C@@H]3CCCN(N3)C2=O)C(C)C)C1 (atropisomer, axis not shown) [Example A653] | 0.01 to 0.1 µM | 0.1 to 1 µM | 0.01 to 0.1 µM | 0.1 to 1 µM | 0.01 to 0.1 µM | 0.1 to 1 µM | 0.01 to 0.1 µM | 
5 | CCn1c(-c2cccnc2[C@H](C)OC)c2c3cc(ccc31)-c1cccc(c1)C[C@H](NC(=O)[C@H](C(C)C)N1CC[C@@]3(CCN(C(=O)C#C[C@H]4COCCN4C)C3)C1=O)C(=O)N1CCC[C@H](N1)C(=O)OCC(C)(C)C2 (atropisomer, axis not shown) [Example A551] | < 0.01 µM | 1 to 10 µM |  | 1 to 10 µM | < 0.01 µM | 1 to 10 µM | 1 to 10 µM | < 0.01 µM
6 | C=CS(=O)(=O)N1CC2(CCN([C@H](C(=O)N[C@H]3Cc4cc(O)cc(c4)-c4ccc5c(c4)c(c(-c4cccnc4[C@H](C)OC)n5CC)CC(C)(C)COC(=O)[C@@H]4CCCN(N4)C3=O)C(C)C)C2=O)C1 (atropisomer, axis not shown) [Example A297] | 0.01 to 0.1 µM | 0.1 to 1 µM | 0.01 to 0.1 µM | 1 to 10 µM | < 0.01 µM | 0.01 to 0.1 µM | 0.01 to 0.1 µM | 
7 | CO[C@@H](C)c1ncccc1-c1c2c3cc(ccc3n1CC(F)(F)F)-c1nc(ns1)C[C@H](NC(=O)[C@@H](COC1CN(C(=O)C#CC(C)(C)N(C)C)C1)C(C)C)C(=O)N1CCC[C@H](N1)C(=O)OCC(C)(C)C2 (atropisomer, axis not shown) [Example A590, (2R)-2-(((1-(4-(dimethylamino)-4-methylpent-2-ynoyl)azetidin-3-yl)oxy)methyl)-N-((6^3S,4S,Z)-1^2-(2-((S)-1-methoxyethyl)pyridin-3-yl)-10,10-dimethyl-5,7-dioxo-1^1-(2,2,2-trifluoroethyl)-6^1,6^2,6^3,6^4,6^5,6^6-hexahydro-1^1H-8-oxa-2(5,3)-thiadiazola-1(5,3)-indola-6(1,3)-pyridazinacycloundecaphane-4-yl)-3-methylbutanamide] | 0.01 to 0.1 µM | 1 to 10 µM | < 0.01 µM | > 10 µM | 0.01 to 0.1 µM | 1 to 10 µM | 1 to 10 µM | 
8 | CCn1c(-c2cccnc2[C@H](C)OC)c2c3cc(ccc31)-c1csc(n1)C[C@H](NC(=O)[C@H](C(C)C)N(C)C(=O)N1CCN(C(=O)/C=C/CN3CCOCC3)C3(CC3)C1)C(=O)N1CCC[C@H](N1)C(=O)OCC(C)(C)C2 (atropisomer, axis not shown) [Example A665] | 0.01 to 0.1 µM | 0.01 to 0.1 µM | < 0.01 µM | 0.1 to 1 µM | 0.01 to 0.1 µM | 0.01 to 0.1 µM | 0.01 to 0.1 µM | 
9 | C=CC(=O)N1CC[C@@]2(CCN(C(=O)N(C)[C@H](C(=O)N[C@H]3Cc4nc(cs4)-c4ccc5c(c4)c(c(-c4cccnc4[C@H](C)OC)n5CC)CC(C)(C)COC(=O)[C@@H]4CCCN(N4)C3=O)C(C)C)C2)C1 (atropisomer, axis not shown) [Example A367] | 0.01 to 0.1 µM | 0.1 to 1 µM | 0.01 to 0.1 µM | 0.1 to 1 µM | 0.01 to 0.1 µM | 0.01 to 0.1 µM | 0.01 to 0.1 µM | 
10 | C=C(F)C(=O)N1CC2(CCN(C(=O)N(C)[C@H](C(=O)N[C@H]3Cc4nc(cs4)-c4ccc5c(c4)c(c(-c4cccnc4[C@H](C)OC)n5CC)CC(C)(C)COC(=O)[C@@H]4CCCN(N4)C3=O)C(C)C)CC2)C1 (atropisomer, axis not shown) [Example A682] | 0.01 to 0.1 µM | 0.1 to 1 µM | 0.01 to 0.1 µM | 0.1 to 1 µM | 0.01 to 0.1 µM | 0.1 to 1 µM | 0.01 to 0.1 µM | 
11 | C=CC(=O)N1C[C@H]2CN(C(=O)N(C)[C@H](C(=O)N[C@H]3Cc4nc(cs4)-c4ccc5c(c4)c(c(-c4cccnc4[C@H](C)OC)n5CC)CC(C)(C)COC(=O)[C@@H]4CCCN(N4)C3=O)C(C)C)[C@H]2C1 (atropisomer, axis not shown) [Example A686] | 0.01 to 0.1 µM | 0.1 to 1 µM | < 0.01 µM | 1 to 10 µM | 0.01 to 0.1 µM | 0.1 to 1 µM | 0.01 to 0.1 µM | 
12 | CCn1c(-c2cccnc2[C@H](C)OC)c2c3cc(ccc31)-c1csc(n1)C[C@H](NC(=O)[C@H](F)COC1CN(C(=O)C#CC(C)(C)N(C)C)C1)C(=O)N1CCC[C@H](N1)C(=O)OCC(C)(C)C2 (atropisomer, axis not shown) [Example A627] | < 0.01 µM | > 10 µM | < 0.01 µM | > 10 µM | < 0.01 µM | > 10 µM | > 10 µM | 
13 | CCn1c(-c2cccnc2[C@H](C)OC)c2c3cc(ccc31)N1CCO[C@@H](C[C@H](NC(=O)[C@H](C(C)C)N(C)C(=O)[C@@]3(F)CCC(C(=O)C#CC(C)(C)N4CCC4)C3)C(=O)N3CCC[C@H](N3)C(=O)OCC(C)(C)C2)C1 (some centres unmarked) [Example A726] | < 0.01 µM | 1 to 10 µM | < 0.01 µM | > 10 µM | 0.01 to 0.1 µM | 1 to 10 µM | > 10 µM | 
14 | C=CC(=O)N1C[C@@H](C)N(C(=O)N(C)[C@H](C(=O)N[C@H]2Cc3nc(cs3)-c3ccc4c(c3)c(c(-c3cccnc3[C@H](C)OC)n4CC)CC(C)(C)COC(=O)[C@@H]3CCCN(N3)C2=O)C(C)C)[C@H](C)C1 (atropisomer, axis not shown) [Example A388] | < 0.01 µM | 0.01 to 0.1 µM | < 0.01 µM | 0.01 to 0.1 µM | < 0.01 µM | < 0.01 µM | < 0.01 µM | 
